Results from patent US9616037B2, “Aryl-phenyl-sulfonamido-cycloalkyl compounds and their use” (PIMCO 2664 Limited, priority 2008, dated 2017).
In brackets after ≈: the same amount, converted by molar mass.

Tests used:
[1] = Thermodynamic aqueous solubility in fasted state simulated intestinal fluid (FaSSIF); format: physicochemical; settings: pH 6.5, thermodynamic from solid, equilibrated at 25° C. for 24 hours, HPLC
Protocol: Initial screening of candidate compounds was performed using in vitro assays to determine potency, metabolic stability and solubility in biologically relevant fluids. Potency was assessed using a viability assay based on the survival of the J774 macrophage cell line. […] Like osteoclasts, J774 macrophages are dependent on continued NFκB activation for survival, thereby providing a valuable screen for compounds with anti-inflammatory activity. Metabolic stability was measured by determining the rate of disappearance of compound in the presence of human liver microsomal preparations, as quantified by LC-MS/MS. Solubility was measured by equilibration of the compound in fasted state simulated intestinal fluid (FaSSIF) and quantified by HPLC.
Thermodynamic aqueous solubility was measured by equilibration of a number of APSAC compounds, in the solid state, with fasted state simulated intestinal fluid (FaSSIF) and quantified by HPLC. Measurement of solubility in FaSSIF provides a valuable model for the prediction of drug dissolution following oral administration.
The pH was adjusted to 6.5 using 1 M NaOH solution.
0.6 mL of a solution containing 100 mg/mL lecithin in methylene chloride was added. The methylene chloride was eliminated under vacuum at about 40° C. The vacuum was drawn for 15 minutes at 250 mbar, followed by 15 minutes at 100 mbar. […] After cooling to room temperature, the solution was then adjusted to 100 mL with blank FaSSIF.
The suspension was equilibrated at 25° C. for 24 hours, and then the pH was measured. The suspension was then filtered through a glass fibre C filter into a 96-well plate. The filtrate was then diluted by a factor of 100. Quantification was made by HPLC with reference to a standard solution of compound at approximately 0.1 mg/mL in DMSO. Different volumes of the standard, diluted and undiluted sample solutions were injected. […] Analysis was performed on an Agilent HP1100 series system equipped with a diode array detector and using ChemStation software vB.02.01-SR1.

J774 macrophages = assay: Alamar Blue macrophage J774 viability assay; format: cell-based; settings: Mus musculus; J774 cells, 72 hours with compound, Alamar Blue readout; read-out: IC50
Protocol: Initial screening of candidate compounds was performed using in vitro assays to determine potency, metabolic stability and solubility in biologically relevant fluids. Potency was assessed using a viability assay based on the survival of the J774 macrophage cell line. Macrophages are closely related to osteoclasts and have been used previously as a model system for osteoclast survival (see, e.g., Luckman et al., 1998). Like osteoclasts, J774 macrophages are dependent on continued NFκB activation for survival, thereby providing a valuable screen for compounds with anti-inflammatory activity. Metabolic stability was measured by determining the rate of disappearance of compound in the presence of human liver microsomal preparations, as quantified by LC-MS/MS. Solubility was measured by equilibration of the compound in fasted state simulated intestinal fluid (FaSSIF) and quantified by HPLC.
In vitro potency as anti-inflammatory agents was determined for a number of APSAC compounds by incubation with J774 macrophages and subsequent determination of cell viability.
J774 cells were plated at 10^4 cells per well in 100 μL αMEM (α Modified Eagle Medium) in 96-well plates and grown overnight. The next day, test compounds were added to the cultures, and cultures were continued for another 72 hours. At the end of the culture period, cell survival was determined using an Alamar Blue assay as previously described (see, e.g., Nociari et al., 1998).
Alamar Blue is an oxidation-reduction sensitive indicator. The dye itself is in the oxidised state, which is blue and non-fluorescent. The dye can accept electrons from reducing species, such as NADPH and FADH, to form a reduced dye species, which is red and fluorescent. Thus the transformation from oxidised form to reduced form can be measured by fluorimetric or colourimetric means. For fluorescence measurements, 530-560 nm excitation and 590 nm emission wavelengths are typically used. For colourimetric measurements, absorbance at 570 nm (reduced form) and 600 nm (oxidised form) is typically measured. A simple calculation is performed to determine the relative quantities of the two species.
A high ratio of the reducing species, NADPH and FADH, to the corresponding oxidised species, NADP and FAD, is an indicator that cells are proliferating and viable. A low ratio indicates cells that are quiescent or non-viable.
Briefly, Alamar Blue (Biosource International) was added undiluted to the each well (1:10 v/v, 10 μL). The plate was incubated at 37° C. for 3-4 hours and the fluorescence was measured at 590 nm, with a 25 nm bandwidth. A high reading indicated cells with normal viability, and a low reading indicated cells that have been damaged and are no longer proliferating normally. The controls gave a high fluorescence reading, indicating a high number of live, healthy cells. A potent test compound gave a low fluorescence reading. The average results for each test compound (n=5) were expressed as a percent (%) of the average control value.
Addition of Compounds. All of the compounds studied were made up as 100 mM solutions in DMSO. These stock solutions were then diluted 1000-10000× in culture medium (αMEM). From these 100 μM or 10 μM solutions, convenient quantities (3-33 μL) were added directly to the wells so as to give the desired final compound concentration.

Row | SMILES | solubility at 24 h [1] | IC50 (J774 macrophages)
1 | O=S(=O)(N[C@H]1CC[C@@H](CO)C1)c1ccc(-c2ccc(F)cc2F)cc1 [ABD773, 2′,4′-Difluoro-N-((1 S,3R)-3-(hydroxymethyl)cyclopentyl)biphenyl-4-sulfonamide] | 890 µg/mL (≈ 2420 µM) | 130 nM
2 | O=S(=O)(N[C@H]1CC[C@@H](CO)CC1)c1ccc(-c2ccc(F)cc2F)cc1 [ABD781, 2′,4′-Difluoro-N-(cis-4-(hydroxymethyl)cyclohexyl)biphenyl-4-sulfonamide] | 590 µg/mL (≈ 1550 µM) | 300 nM
